Where two headings read alike, the source gives them in different places.
Assays:
rice blast [1] = format: in vivo, Pyricularia oryzae
rice blast [2] = assay: whole plant or invertebrate; format: in vivo; details: Pyricularia oryzae, 504 h, read-out: prevention value
rice "Bakanae" disease = assay: whole plant or invertebrate; format: in vivo; details: Oryza sativa, 504 h, read-out: prevention value
[3] = rice (Sachikaze), nursery box soil treated at sowing time or transplanting time, 400 g a.i./10 a, observed 7 days after inoculation, untreated plants = 3

SMILES: CC1(C)N=C(c2cnc3ccccc3c2)c2cccc(F)c2C1(C)C [Compound No. 1-866, 3-(5-fluoro-3,3,4,4-tetramethyl-3,4-dihydroisoquinolin-1-yl)quinoline]
- disease severity (rice blast [1]; [3]): 0
- pest or weed control at 0.02 % a.i. (rice blast [2]): ≥ 80%
- pest or weed control at 0.02 % a.i. (rice "Bakanae" disease): ≥ 80%

SMILES: CC1(C)c2cc(F)ccc2C(c2cnc3ccccc3c2)=[N+]([O-])C1(C)C [Compound No. 3-109, 3-(6-fluoro-3,3,4,4-tetramethyl-2-oxido-3,4-dihydroisoquinolin-1-yl)quinoline]
- disease severity (rice blast [1]; [3]): 0

SMILES: CC1(C)[N+]([O-])=C(c2cnc3ccccc3c2)c2cccc(F)c2C1(F)F [Compound No. 3-135, 3-(4,4,5-trifluoro-3,3-dimethyl-2-oxido-3,4-dihydroisoquinolin-1-yl)quinoline]
- disease severity (rice blast [1]; [3]): 0
- pest or weed control at 0.02 % a.i. (rice blast [2]): ≥ 80%
- pest or weed control at 0.02 % a.i. (rice "Bakanae" disease): ≥ 80%

SMILES: CC1(C)N=C(c2cnc3ccccc3c2)c2ccccc2C1(C)C [Compound No. 1-865, 3-(3,3,4,4-tetramethyl-3,4-dihydroisoquinolin-1-yl)quinoline]
- pest or weed control at 0.02 % a.i. (rice "Bakanae" disease): ≥ 80%

SMILES: CC1(c2ccc(F)cc2)Cc2ccccc2C(c2cnc3ccccc3c2)=N1 (stereo not shown) [Compound No. 1-502, 3-[3-methyl-3-(4-fluorophenyl)-3,4-dihydroisoquinolin-1-yl]quinoline]
- disease severity (rice blast [1]; [3]): 0

SMILES: CC1(C(F)(F)F)Cc2ccccc2C(c2cnc3ccccc3c2)=N1 (stereo not shown) [Compound No. 1-387, 3-(3-methyl-3-trifluoromethyl-3,4-dihydroisoquinolin-1-yl)quinoline]
- disease severity (rice blast [1]; [3]): 0

SMILES: CC1(C)N=C(c2cnc3ccccc3c2)c2cccc(F)c2C1(F)F [Compound No. 1-930, 3-(4,4,5-trifluoro-3,3-dimethyl-3,4-dihydroisoquinolin-1-yl)quinoline]
- disease severity (rice blast [1]; [3]): 0
- pest or weed control at 0.02 % a.i. (rice blast [2]): ≥ 80%
- pest or weed control at 0.02 % a.i. (rice "Bakanae" disease): ≥ 80%

SMILES: CC1(C)c2c(F)cccc2C2(c3cnc4ccccc4c3)ON2C1(C)C (stereo not shown) [Compound No. 2-100, 5-fluoro-3,3,4,4-tetramethyl-8b-quinolin-3-yl-4,8b-dihydro-3H-oxazireno[3,2-a]isoquinoline]
- pest or weed control at 0.02 % a.i. (rice blast [2]): ≥ 80%
- pest or weed control at 0.02 % a.i. (rice "Bakanae" disease): ≥ 80%

SMILES: CC1(C)Cc2c(Br)cccc2C(c2cnc3ccccc3c2)=N1 [Compound No. 1-56, 3-(5-bromo-3,3-dimethyl-3,4-dihydroisoquinolin-1-yl)quinoline]
- disease severity (rice blast [1]; [3]): 0

SMILES: CC1(C)Cc2c(ccc(F)c2F)C(c2cnc3ccccc3c2)=N1 [Compound No. 1-117, 3-(5,6-difluoro-3,3-dimethyl-3,4-dihydroisoquinolin-1-yl)quinoline]
- disease severity (rice blast [1]; [3]): 0

SMILES: CC1(C)N=C(c2cnc3c(F)cccc3c2)c2cccc(F)c2C1(C)C [Compound No. 1-918, 8-fluoro-3-(5-fluoro-3,3,4,4-tetramethyl-3,4-dihydroisoquinolin-1-yl)quinoline]
- disease severity (rice blast [1]; [3]): 0

SMILES: CC1(C)N2OC2(c2cnc3ccccc3c2)c2ccccc2C1(F)F (stereo not shown) [Compound No. 2-134, 4,4-difluoro-3,3-dimethyl-8b-quinolin-3-yl-4,8b-dihydro-3H-oxazireno[3,2-a]isoquinoline]
- pest or weed control at 0.02 % a.i. (rice blast [2]): ≥ 80%

SMILES: CC1(C)c2ccccc2C2(c3cnc4ccccc4c3)ON2C1(C)C (stereo not shown) [Compound No. 2-91, 3,3,4,4-tetramethyl-8b-quinolin-3-yl-4,8b-dihydro-3H-oxazireno[3,2-a]isoquino line]
- disease severity (rice blast [1]; in vivo): 0

SMILES: CC1(C)N2OC2(c2cnc3ccccc3c2)c2cccc(F)c2C1(F)F (stereo not shown) [Compound No. 2-135, 4,4,5-trifluoro-3,3-dimethyl-8b-quinolin-3-yl-4,8b-dihydro-3H-oxazireno[3,2-a]isoquinoline]
- pest or weed control at 0.02 % a.i. (rice blast [2]): ≥ 80%

SMILES: CC1(CC(F)(F)F)Cc2ccccc2C(c2cnc3ccccc3c2)=N1 (stereo not shown) [Compound No. 1-425, 3-[3-methyl-3-(2,2,2-trifluoroethyl)-3,4-dihydroisoquinolin-1-yl]quinoline]
- disease severity (rice blast [1]; [3]): 0

SMILES: CC1(C)[N+]([O-])=C(c2cnc3ccccc3c2)c2ccccc2C1(F)F [Compound No. 3-134, 3-(4,4-difluoro-3,3-dimethyl-2-oxido-3,4-dihydroisoquinolin-1-yl)quinoline]
- disease severity (rice blast [1]; [3]): 0
- pest or weed control at 0.02 % a.i. (rice blast [2]): ≥ 80%
- pest or weed control at 0.02 % a.i. (rice "Bakanae" disease): ≥ 80%

SMILES: CC1(C)Cc2c(F)cccc2C(c2cnc3ccccc3c2)=N1 [Compound No. 1-32, 3-(5-fluoro-3,3-dimethyl-3,4-dihydroisoquinolin-1-yl)quinoline]
- disease severity (rice blast [1]; [3]): 0
- pest or weed control at 0.02 % a.i. (rice blast [2]): ≥ 80%
- pest or weed control at 0.02 % a.i. (rice "Bakanae" disease): ≥ 80%

SMILES: CC1(C)Cc2c(Cl)cccc2C(c2cnc3ccccc3c2)=N1 [Compound No. 1-44, 3-(5-chloro-3,3-dimethyl-3,4-dihydroisoquinolin-1-yl)quinoline]
- disease severity (rice blast [1]; [3]): 0

SMILES: CC1(C)N=C(c2cnc3ccccc3c2)c2ccccc2C1(F)F [Compound No. 1-929, 3-(4,4-difluoro-3,3-dimethyl-3,4-dihydroisoquinolin-1-yl)quinoline]
- disease severity (rice blast [1]; [3]): 0
- pest or weed control at 0.02 % a.i. (rice blast [2]): ≥ 80%
- pest or weed control at 0.02 % a.i. (rice "Bakanae" disease): ≥ 80%

SMILES: CCCC1(C)Cc2c(F)cccc2C(c2cnc3ccccc3c2)=N1 (stereo not shown) [Compound No. 1-185, 3-(5-fluoro-3-methyl-3-propyl-3,4-dihydroisoquinolin-1-yl)quinoline]
- disease severity (rice blast [1]; [3]): 0

SMILES: Cc1cccc2cc(C3=NC(C)(C)C(C)(C)c4c(F)cccc43)cnc12 [Compound No. 1-919, 3-(5-fluoro-3,3,4,4-tetramethyl-3,4-dihydroisoquinolin-1-yl)-8-methylquinoline]
- disease severity (rice blast [1]; [3]): 0

SMILES: CC1(C)c2c(F)cccc2C(c2cnc3ccccc3c2)=[N+]([O-])C1(C)C [Compound No. 3-100, 3-(5-fluoro-3,3,4,4-tetramethyl-2-oxido-3,4-dihydroisoquinolin-1-yl)quinoline]
- disease severity (rice blast [1]; [3]): 0
- pest or weed control at 0.02 % a.i. (rice blast [2]): ≥ 80%
- pest or weed control at 0.02 % a.i. (rice "Bakanae" disease): ≥ 80%

Source: US8729093B2 (priority 2006, dated 2014)
